# From patent US11827628B2, “Compositions and methods for inhibition of the JAK pathway” (Rigel Pharmaceuticals, Inc., priority 2005, dated 2023)
# Read-outs that look alike come from different tables or passages of the source.
# Tested on: up-regulation of ICAM-1 (CD54) by IFNγ in A549 lung epithelial cells
# Test: A549 Epithelial Line Stimulated with IFNγ (ICAM-1 surface expression, FACS)
# Format: cell-based, human
# Conditions: ICAM-1 expression by FACS, read-out: IC50, Example 43
# In short: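 A549 cells pre-incubated 1 h with compound (30 μM to 14 nM, 5% FBS, 0.3% DMSO), then stimulated with IFNγ (75 ng/mL) for 24 h. Surface ICAM-1 stained with APC anti-CD54 and read by flow cytometry; geometric mean of live-gated events plotted against concentration for EC50.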
# [1] = Homo sapiens, A549, A549 epithelial line stimulated with IFNγ
Structure (SMILES),IC50 [1] [µM],other results
"COc1ccc(CN2C(=O)C(C)Oc3ccc(Nc4nc(Nc5ccc(S(N)(=O)=O)cc5)ncc4F)cc32)cc1 (racemic) [Compound V-4, Racemic N2-(4-Aminosulphonylphenyl)-5-fluoro-N4-[2-methyl-3-oxo-4-(4-methoxybenzyl)-benz[1,4]oxazin-6-yl]-2,4-pyrimidinediamine]",,IC50 (A549 cells stimulated with IFNγ): 9.24 µM
"COc1cc(Nc2nc(Nc3ccc(S(N)(=O)=O)cc3)ncc2F)cc(OCC#N)c1OC [Compound I-1, N2-(4-Aminosulphonylphenyl)-N4-(3-cyanomethoxy-4,5-dimethoxyphenyl)-5-fluoro-2,4-pyrimidinediamine]",18.5,
"COc1cc(Nc2nc(Nc3ccc(S(N)(=O)=O)cc3)ncc2F)ccc1OCC#N [Compound I-45, N2-(4-Aminosulfonylphenyl)-N4-(4-cyanomethoxy-3-methoxyphenyl)-5-fluoro-2,4-pyrimidinediamine]",17,
"COc1ccc(Nc2ncc(F)c(Nc3ccc(OCC#N)cc3)n2)cc1S(N)(=O)=O [Compound I-56, N2-(3-Aminosulfonyl-4-methoxyphenyl)-N4-(4-cyanomethoxyphenyl)-5-fluoro-2,4-pyrimidinediamine]",4.97,
"Cc1cnc(Nc2cccc(S(N)(=O)=O)c2)nc1Nc1ccc(OCC#N)cc1 [Compound I-58, N2-(3-Aminosulfonylphenyl)-N4-(4-cyanomethoxyphenyl)-5-methyl-2,4-pyrimidinediamine]",0.73,
"Cc1ccc(Nc2ncc(C)c(Nc3ccc(OCC#N)cc3)n2)cc1S(N)(=O)=O [Compound I-59, N2-(3-Aminosulfonyl-4-methylphenyl)-N4-(4-cyanomethoxyphenyl)-5-methyl-2,4-pyrimidinediamine]",0.947,
"NC(=O)COc1ccc(Nc2nc(Nc3ccc(S(N)(=O)=O)cc3)ncc2F)cc1Cl [Compound I-97, N4-(4-Aminocarbonylmethoxy-3-chlorophenyl)-N2-(4-aminosulfonylphenyl)-5-fluoro-2,4-pyrimidinediamine]",31.1,
"NC(=O)COc1ccc(Nc2nc(Nc3cccc(S(N)(=O)=O)c3)ncc2F)cc1Cl [Compound I-98, N4-(4-Aminocarbonylmethoxy-3-chlorophenyl)-N2-(3-aminosulfonylphenyl)-5-fluoro-2,4-pyrimidinediamine]",37.3,
"NC(=O)COc1ccc(Nc2nc(Nc3cccc(S(N)(=O)=O)c3)ncc2F)cc1F [Compound I-101, N4-(4-Aminocarbonylmethoxy-3-fluorophenyl)-N2-(3-aminosulfonylphenyl)-5-fluoro-2,4-pyrimidinediamine]",51.2,
"Cc1ccc(Nc2ncc(F)c(Nc3ccc(OCC(N)=O)c(F)c3)n2)cc1S(N)(=O)=O [Compound I-102, N4-(4-Aminocarbonylmethoxy-3-fluorophenyl)-N2-(3-aminosulfonyl-4-methylphenyl)-5-fluoro-2,4-pyrimidinediamine]",43.8,
"Cc1cnc(Nc2cccc(S(N)(=O)=O)c2)nc1Nc1ccc(OCC(N)=O)cc1 [Compound I-109, N4-(4-Aminocarbonylmethoxyphenyl)-N2-(3-aminosulfonylphenyl)-5-methyl-2,4-pyrimidinediamine]",26,
"Cc1ccc(Nc2ncc(C)c(Nc3ccc(OCC(N)=O)cc3)n2)cc1S(N)(=O)=O [Compound I-110, N4-(4-Aminocarbonylmethoxyphenyl)-N2-(3-aminosulfonyl-4-methylphenyl)-5-methyl-2,4-pyrimidinediamine]",20.6,
"Cc1cnc(Nc2cccc(S(N)(=O)=O)c2)nc1Nc1ccc(OCC(=O)N(C)C)c(Cl)c1 [Compound I-135, N2-(3-Aminosulfonylphenyl)-N4-(3-chloro-4-dimethylaminocarbonylmethoxyphenyl)-5-methyl-2,4-pyrimidinediamine]",3.24,
"Cc1ccc(Nc2ncc(C)c(Nc3ccc(OCC(=O)N(C)C)c(Cl)c3)n2)cc1S(N)(=O)=O [Compound I-136, N2-(3-Aminosulfonyl-4-methylphenyl)-N4-(3-chloro-4-dimethylaminocarbonylmethoxyphenyl)-5-methyl-2,4-pyrimidinediamine]",8.11,
"Cc1cnc(Nc2cccc(S(N)(=O)=O)c2)nc1Nc1ccc(OCC(=O)N(C)C)c(F)c1 [Compound I-138, N2-(3-Aminosulfonylphenyl)-N4-(4-dimethylaminocarbonylmethoxy-3-fluorophenyl)-5-methyl-2,4-pyrimidinediamine]",91.5,
"Cc1ccc(Nc2ncc(C)c(Nc3ccc(OCC(=O)N(C)C)c(F)c3)n2)cc1S(N)(=O)=O [Compound I-139, N2-(3-Aminosulfonyl-4-methylphenyl)-N4-(4-dimethylaminocarbonylmethoxy-3-fluorophenyl)-5-methyl-2,4-pyrimidinediamine]",11.6,
"Cc1cnc(Nc2ccc(Cl)c(S(N)(=O)=O)c2)nc1Nc1ccc(OCC(=O)N(C)C)c(Cl)c1 [Compound I-141, N2-(3-Aminosulfonyl-4-chlorophenyl)-N4-(3-chloro-4-dimethylaminocarbonylmethoxyphenyl)-5-methyl-2,4-pyrimidinediamine]",15.6,
"Cc1ccc(Nc2nc(Nc3cccc(S(N)(=O)=O)c3)ncc2F)cc1OCCN1CCOCC1 [Compound I-203, N2-(3-Aminosulfonylphenyl)-5-fluoro-N4-[4-methyl-3-(2-morpholinoethyloxy)phenyl]-2,4-pyrimidinediamine]",5.77,
"NS(=O)(=O)c1ccc(Nc2ncc(F)c(Nc3ccc(OCCN4CCOCC4)cc3)n2)cc1 [Compound I-205, N2-(4-Aminosulfonylphenyl)-5-fluoro-N4-[4-(2-morpholinoethyloxy)phenyl)-2,4-pyrimidinediamine]",9.49,
"Cc1cc(COc2ccc(Nc3nc(Nc4cccc(S(N)(=O)=O)c4)ncc3F)cc2)no1 [Compound I-230, N2-(3-Aminosulfonylphenyl)-5-fluoro-N4-[4-(5-methylisoxazol-3-yl)methyleneoxyphenyl]-2,4-pyrimidinediamine]",10.5,
"Cc1cc(COc2ccc(Nc3nc(Nc4cccc(S(=O)(=O)NCc5oc(=O)oc5C)c4)ncc3F)cc2)no1 [Compound I-247, N2-{3-[(N-5-Methyl-1,3-dioxolene-2-one-4-yl)methylene]aminosulfonylphenyl}-5-fluoro-N4-[4-(5-methylisoxazol-3-yl)methyleneoxyphenyl]-2,4-pyrimidinediamine]",11.1,
Cc1cc2ccc(CNc3nc(Nc4cccc(S(N)(=O)=O)c4)ncc3F)cc2[nH]1 [Compound X-3],,"IC50 (Homo sapiens, A549, A549 cells stimulated with IFNγ): 4.98 µM"
"Cc1ccc(Nc2ncc(F)c(Nc3ccc(Oc4cccnc4)cc3)n2)cc1S(N)(=O)=O [II-12, N2-(3-Aminosulfonyl-4-methylphenyl)-5-fluoro-N4-[4-(3-pyridyloxy)phenyl]-2,4-pyrimidinediamine]",5.52,
"Cc1cnc(Nc2ccc(Cl)c(S(N)(=O)=O)c2)nc1Nc1ccc(CCC#N)cc1 [III-12, N2-(3-Aminosulfonyl-4-chlorophenyl)-N4-[4-(2-cyanoethyl)phenyl]-5-methyl-2,4-pyrimidinediamine]",3.52,
"Cc1cc(Nc2nc(Nc3ccc(C)c(S(N)(=O)=O)c3)ncc2F)ccc1CCC#N [III-19, N2-(3-Aminosulfonyl-4-methylphenyl)-N4-[4-(2-cyanoethyl)-3-methylphenyl]-5-fluoro-2,4-pyrimidinediamine]",21.9,
"Cc1cc(Nc2nc(Nc3cccc(S(N)(=O)=O)c3)ncc2F)ccc1CCC#N [III-20, N2-(3-Aminosulfonylphenyl)-N4-[4-(2-cyanoethyl)-3-methylphenyl]-5-fluoro-2,4-pyrimidinediamine]",6.64,
